Source: patent publication US20230355647A1, “Marker for determining anti-cancer effects of mitochondrial oxidative phosphorylation pathway inhibitor” (NANJING SHIJIANG MEDICINE TECHNOLOGY CO., LTD, priority 2020, published 2023)
pIC50: −log10 of the molar value.

Key:
CFPAC-1 = experiment: Cell viability (CellTiter-Glo), CFPAC-1; assay type: cell-based; settings: Homo sapiens; CFPAC-1 cell line, 3-4 days of culture
Description: (§1) Cell viability was detected using the Promega CellTiter-Glo kit, the kit reflected cell viability by directly measuring intracellular ATP content. The inhibitory effect (IC50 value) of Gboxin, a mitochondrial oxidative phosphorylation pathway inhibitor, on different tumor cell lines was tested in the Example. The name, source, and culture condition of each tumor cell line were as follows: Cell line CFPAC-1 (ATCC, No. CRL-1918) was cultured in 10% fetal bovine serum-containing IMDM medium (+P/S). […] Cell viability was detected using the Promega CellTiter-Glo kit, the kit reflected cell viability by directly measuring intracellular ATP content.

MDA-MB-453 = experiment: Cell viability (CellTiter-Glo), MDA-MB-453; assay type: cell-based; settings: Homo sapiens; MDA-MB-453 cell line, 3-4 days of culture
Description: as §1, with “MDA-MB-453” for “CFPAC-1”, “HTB-131)” for “CRL-1918)”, “Leibovitz's L-15” for “IMDM”

WSU-DLCL2 = experiment: Cell viability (CellTiter-Glo), WSU-DLCL2; assay type: cell-based; settings: Homo sapiens, WSUDLCL2; WSU-DLCL2 cell line, 3-4 days of culture
Description: as §1, with “WSU-DLCL2 (DSMZ,” for “CFPAC-1 (ATCC,”, “ACC-575)” for “CRL-1918)”, “RPMI1640” for “IMDM”

NCI-H82 = experiment: Cell viability (CellTiter-Glo), NCI-H82; assay type: cell-based; settings: Homo sapiens; NCI-H82 cell line, 3-4 days of culture
Description: as §1, with “NCI-H82” for “CFPAC-1”, “HTB-175)” for “CRL-1918)”, “RPMI1640” for “IMDM”

GB-1 = experiment: Cell viability (CellTiter-Glo), GB-1; assay type: cell-based; settings: Homo sapiens; GB-1 cell line, 3-4 days of culture
Description: Cell viability was detected using the Promega CellTiter-Glo kit, the kit reflected cell viability by directly measuring intracellular ATP content. The inhibitory effect (IC50 value) of Gboxin, a mitochondrial oxidative phosphorylation pathway inhibitor, on different tumor cell lines was tested in the Example. The name, source, and culture condition of each tumor cell line were as follows:
Cell line GB-1 (JCRB, No. IFO50489) was cultured in 10% fetal bovine serum-containing DMEM medium (+P/S).
The above tumor cells were cultured in the relevant medium (+P/S), and incubated for 3 h, then the gradient diluted Gboxin was added, and IC50 (50% inhibiting concentration) was measured after 3-4 days of culture.
Cell viability was detected using the Promega CellTiter-Glo kit, the kit reflected cell viability by directly measuring intracellular ATP content. In this experiment, the IC50 values of Oligomycin A or IACS-010759, a mitochondrial oxidative phosphorylation pathway inhibitor, on different tumor cells was determined.
The different tumor cells were cultured in the relevant medium (+P/S) as shown in Example 2, and incubated for 3 h, then the gradient diluted Oligomycin A or IACS-010759 was added respectively, and IC50 (50% inhibiting concentration) of Oligomycin A or IACS-010759 on different tumor cells was measured after 3-4 days of culture.

[1] = tested on: mitochondrial oxidative phosphorylation pathway; experiment: Oxygen consumption of NCI-H82 cell, Seahorse XFe metabolic analyzer; assay type: cell-based, human; settings: detection within 0.5 h, compared with control group, FIG. 1 (n=3)
Source text: The oxygen was mainly consumed by mitochondrial oxidative phosphorylation pathway in the cell, thus the determination of oxygen consumption rate (OCR) of mitochondria could directly reflect the activity of mitochondrial oxidative phosphorylation pathway. The oxygen consumption of NCI-H82 cell in the presence or absence of Oligomycin A, Gboxin, S-Gboxin and IACS-010759, mitochondrial oxidative phosphorylation pathway inhibitors, was detected using Seahorse XFe metabolic analyzer in the present Example. NCI-H82 cell (ATCC, No. […] The control group in absence of mitochondrial oxidative phosphorylation pathway inhibitor was set. The detection of cell oxygen consumption was finished within 0.5 h.

786-O = experiment: Cell viability (CellTiter-Glo), 786-O; assay type: cell-based; settings: Homo sapiens, 786-0; 786-O cell line, 3-4 days of culture
Description: as §1, with “786-O” for “CFPAC-1”, “CRL-1932)” for “CRL-1918)”, “RPMI1640” for “IMDM”

[2] = tested on: brain tumors and acute myeloid leukemia; settings: study published in Nature Medicine (2018); cited from earlier work
SF126 = experiment: Cell viability (CellTiter-Glo), SF126; assay type: cell-based; settings: Homo sapiens, SF-126; SF126 cell line, 3-4 days of culture
Description: as §1, with “SF126 (JCRB,” for “CFPAC-1 (ATCC,”, “IFO50286)” for “CRL-1918)”, “EMEM” for “IMDM”

G-401 = experiment: Cell viability (CellTiter-Glo), G-401; assay type: cell-based; settings: Homo sapiens; G-401 cell line, 3-4 days of culture
Description: as §1, with “G-401” for “CFPAC-1”, “CRL-1441)” for “CRL-1918)”, “McCoy's 5a” for “IMDM”

SW48 = experiment: Cell viability (CellTiter-Glo), SW48; assay type: cell-based; settings: Homo sapiens; SW48 cell line, 3-4 days of culture
Description: as §1, with “SW48” for “CFPAC-1”, “CCL-231)” for “CRL-1918)”, “Leibovitz's L-15” for “IMDM”

NCI-H82-NNMT^ov tumor = experiment: Subcutaneous NCI-H82-NNMT^ov tumor-bearing nude mice; assay type: in vivo; settings: nude mice inoculated with NCI-H82-NNMT^ov; 10 mg/kg/day intraperitoneally; compared with effect on NCI-H82 tumor; FIG. 26
Source text: (§2) To verify whether cells sensitive to mitochondrial oxidative phosphorylation pathway […] still maintained the sensitivity to oxidative phosphorylation pathway inhibitors in vivo, S-Gboxin was used to test the effectiveness in tumor-bearing mice subcutaneously inoculated with sensitive cells (NCI-H82) and insensitive cells (CFPAC-1).
(§3) 5×10^6 of NCI-H82, NCI-H82-NNMT^ov (inserting the NNMT gene into NCI-H82 cell using a viral vector to overexpress NNMT protein) and CFPAC-1 tumors were subcutaneously inoculated in nude mice to establish tumor-bearing mice. Each group of tumor-bearing mice was injected intraperitoneally with the S-Gboxin (a mitochondrial oxidative phosphorylation pathway inhibition) at a dose of 10 mg/kg/day, the inhibition effect of S-Gboxin on the tumor was investigated. The mice in control group was injected intraperitoneally with solvent vehicle in the same method, and the tumor volume was calculated as follows: tumor volume=½ length×width 2. The experiment result was shown in FIG. 25, FIG. 26, and FIG. 27.

CFPAC-1 tumor = experiment: Subcutaneous CFPAC-1 tumor-bearing nude mice; assay type: in vivo; settings: nude mice inoculated with CFPAC-1; 10 mg/kg/day intraperitoneally; vs solvent vehicle; FIG. 27
Source text: as §2, §3

NCI-H82 tumor = experiment: Subcutaneous NCI-H82 tumor-bearing nude mice; assay type: in vivo; settings: nude mice inoculated with NCI-H82; 10 mg/kg/day intraperitoneally; vs solvent vehicle; FIG. 25
Source text: as §2, §3

Cc1nc(-c2nc(-c3ccc(OC(F)(F)F)cc3)no2)nn1Cc1cccc(N2CCC(S(C)(=O)=O)CC2)c1 [IACS-010759]
pIC50 (CFPAC-1): 4.25
pIC50 (MDA-MB-453): > 8.00
pIC50 (WSU-DLCL2): 5.45
pIC50 (NCI-H82): 6.77
pIC50 (GB-1): < 4.82
oxygen consumption of NCI-H82 cells ([1]; 1 μM inhibitor): significantly inhibit
pIC50 (786-O): < 4.30
inhibitory effect on brain tumors and acute myeloid leukemia [2]: excellent inhibitory effect
pIC50 (SF126): < 4.82
pIC50 (G-401): 5.83
pIC50 (SW48): > 8.00

CC(C)[C@@H]1CC[C@@H](C)C[C@H]1OC(=O)Cn1c(-c2cccc(C(F)(F)F)c2)[n+](C)c2ccccc21.[I-] [S-Gboxin]
inhibitory effect on subcutaneous tumor (tumor volume) (NCI-H82-NNMT^ov tumor): significantly weaker
inhibitory effect on subcutaneous tumor (tumor volume) (CFPAC-1 tumor): no significant inhibitory effect
oxygen consumption of NCI-H82 cells ([1]; 5 μM inhibitor): significantly inhibit
inhibition of subcutaneous tumor (tumor volume) (NCI-H82 tumor): significantly inhibit
